According to PubChem BioAssay AID1963863 (Molecular Pharmacology Branch, DTP, NCI, 2024):
pIC50: −log10 of the molar value.

Test system: 931267-113-T-J1-PDC KRAS spheroid with HUVEC/MSC, viability
Assay: Anticancer human tumor 931267-113-T-J1-PDC patient-derived colon adenocarcinoma cell line growth inhibition [KRAS2]
Conditions: for pIC50: curve of first compound; for viability, T/C: stronger effect = lower value
Outline: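 KRAS-mutant tumor cells were grown as spheroids with HUVEC endothelial cells and human MSCs as stroma. Targeted agents were tested alone and with KRAS pathway inhibitors. Doses started at or near clinical Cmax, or 10 microM, descending half-log.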

[1] = second compound 0.1 µM, first compound 0.0316 µM
[2] = second compound 0.1 µM, first compound 0.1 µM
[3] = second compound 0.1 µM, first compound 0.316 µM
[4] = second compound 0.1 µM, first compound 1 µM
[5] = second compound 0.1 µM, first compound 3.16 µM
[6] = second compound 0.1 µM, first compound 10 µM
[7] = second compound 0.316 µM, first compound 0.0316 µM
[8] = second compound 0.316 µM, first compound 0.1 µM
[9] = second compound 0.316 µM, first compound 0.316 µM
[10] = second compound 0.316 µM, first compound 1 µM
[11] = second compound 0.316 µM, first compound 3.16 µM
[12] = second compound 0.316 µM, first compound 10 µM
[13] = second compound 1 µM, first compound 0.0316 µM
[14] = second compound 1 µM, first compound 0.1 µM
[15] = second compound 1 µM, first compound 0.316 µM
[16] = second compound 1 µM, first compound 1 µM
[17] = second compound 1 µM, first compound 3.16 µM
[18] = second compound 1 µM, first compound 10 µM
[19] = second compound 3.16 µM, first compound 0.0316 µM
[20] = second compound 3.16 µM, first compound 0.1 µM
[21] = second compound 3.16 µM, first compound 0.316 µM
[22] = second compound 3.16 µM, first compound 1 µM
[23] = second compound 3.16 µM, first compound 3.16 µM
[24] = second compound 3.16 µM, first compound 10 µM
[25] = second compound 10 µM, first compound 0.0316 µM
[26] = second compound 10 µM, first compound 0.1 µM
[27] = second compound 10 µM, first compound 0.316 µM
[28] = second compound 10 µM, first compound 1 µM
[29] = second compound 10 µM, first compound 3.16 µM
[30] = second compound 10 µM, first compound 10 µM
[31] = second compound 0.0316 µM, first compound 0.0316 µM
[32] = second compound 0.0316 µM, first compound 0.1 µM
[33] = second compound 0.0316 µM, first compound 0.000316 µM
[34] = second compound 0.0316 µM, first compound 0.001 µM
[35] = second compound 0.0316 µM, first compound 0.00316 µM
[36] = second compound 0.0316 µM, first compound 0.01 µM
[37] = second compound 0.1 µM, first compound 0.000316 µM
[38] = second compound 0.1 µM, first compound 0.001 µM
[39] = second compound 0.1 µM, first compound 0.00316 µM
[40] = second compound 0.1 µM, first compound 0.01 µM
[41] = second compound 0.316 µM, first compound 0.000316 µM
[42] = second compound 0.316 µM, first compound 0.001 µM
[43] = second compound 0.316 µM, first compound 0.00316 µM
[44] = second compound 0.316 µM, first compound 0.01 µM
[45] = second compound 1 µM, first compound 0.000316 µM
[46] = second compound 1 µM, first compound 0.001 µM
[47] = second compound 1 µM, first compound 0.00316 µM
[48] = second compound 1 µM, first compound 0.01 µM
[49] = second compound 3.16 µM, first compound 0.000316 µM
[50] = second compound 3.16 µM, first compound 0.001 µM
[51] = second compound 3.16 µM, first compound 0.00316 µM
[52] = second compound 3.16 µM, first compound 0.01 µM
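Further: compound exposure lasted 7 days before the readout.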
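Wherever viability, T/C is given: 100% = DMSO vehicle control viability.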

CC1OCC2(CCN(c3cnc(Sc4ccnc(N)c4Cl)c(N)n3)CC2)C1N (stereo not given) + C=CC(=O)N1CCN(c2nc(=O)n(-c3c(C)ccnc3C(C)C)c3nc(-c4c(O)cccc4F)c(F)cc23)C(C)C1
pIC50 (second compound 0.1 µM): < 5.00
pIC50 (second compound 0.316 µM): < 5.00
pIC50 (second compound 1 µM): < 5.00
pIC50 (second compound 3.16 µM): < 5.00
pIC50 (second compound 10 µM): < 5.00
viability, T/C [1]: 86.7%
viability, T/C [2]: 73.4%
viability, T/C [3]: 69.9%
viability, T/C [4]: 64.8%
viability, T/C [5]: 67.5%
viability, T/C [6]: 77.4%
viability, T/C [7]: 119%
viability, T/C [8]: 92.3%
viability, T/C [9]: 83.3%
viability, T/C [10]: 73.6%
viability, T/C [11]: 80.4%
viability, T/C [12]: 83.5%
viability, T/C [13]: 118%
viability, T/C [14]: 87.8%
viability, T/C [15]: 79%
viability, T/C [16]: 64.1%
viability, T/C [17]: 78.7%
viability, T/C [18]: 78.9%
viability, T/C [19]: 99.7%
viability, T/C [20]: 91.8%
viability, T/C [21]: 100%
viability, T/C [22]: 87.3%
viability, T/C [23]: 70.1%
viability, T/C [24]: 82.3%
viability, T/C [25]: 92.3%
viability, T/C [26]: 74.8%
viability, T/C [27]: 79.7%
viability, T/C [28]: 75.6%
viability, T/C [29]: 74.1%
viability, T/C [30]: 67%

O=C(c1cc(Cc2n[nH]c(=O)c3ccccc23)ccc1F)N1CCN(C(=O)C2CC2)CC1 + CC1OCC2(CCN(c3cnc(Sc4ccnc(N)c4Cl)c(N)n3)CC2)C1N
pIC50 (second compound 0.1 µM): < 5.00
pIC50 (second compound 0.316 µM): < 5.00
pIC50 (second compound 1 µM): < 5.00
pIC50 (second compound 3.16 µM): < 5.00
pIC50 (second compound 10 µM): 5.50
viability, T/C [1]: 72.8%
viability, T/C [2]: 70.8%
viability, T/C [3]: 72.9%
viability, T/C [4]: 68.4%
viability, T/C [5]: 81.5%
viability, T/C [6]: 73.5%
viability, T/C [7]: 64.2%
viability, T/C [8]: 72.7%
viability, T/C [9]: 59.1%
viability, T/C [10]: 66.9%
viability, T/C [11]: 54.8%
viability, T/C [12]: 62.4%
viability, T/C [13]: 86.6%
viability, T/C [14]: 89.5%
viability, T/C [15]: 89.1%
viability, T/C [16]: 86%
viability, T/C [17]: 73.3%
viability, T/C [18]: 89.1%
viability, T/C [19]: 56.6%
viability, T/C [20]: 48%
viability, T/C [21]: 52.6%
viability, T/C [22]: 64.6%
viability, T/C [23]: 56.4%
viability, T/C [24]: 50.8%
viability, T/C [25]: 59.9%
viability, T/C [26]: 60.2%
viability, T/C [27]: 99%
viability, T/C [28]: 46%
viability, T/C [29]: 63.9%
viability, T/C [30]: 51.9%

Cn1nccc1Nc1nccc(-c2cc3c(s2)C(C)(C)N(CCN2CCOCC2)C3=O)n1 + C=CC(=O)N1CCN(c2nc(OCC3CCCN3C)nc3c2CCN(c2cccc4cccc(C)c24)C3)CC1CC#N
pIC50 (second compound 0.0316 µM): 6.37
pIC50 (second compound 0.1 µM): 6.28
pIC50 (second compound 0.316 µM): 6.40
pIC50 (second compound 1 µM): 6.44
pIC50 (second compound 3.16 µM): > 7.50
viability, T/C [31]: 118%
viability, T/C [32]: 97.7%
viability, T/C (second compound 0.0316 µM, first compound 0.316 µM): 59.8%
viability, T/C (second compound 0.0316 µM, first compound 1 µM): 23%
viability, T/C (second compound 0.0316 µM, first compound 3.16 µM): 7.09%
viability, T/C (second compound 0.0316 µM, first compound 10 µM): 4.66%
viability, T/C [1]: 88.9%
viability, T/C [2]: 92%
viability, T/C [3]: 57.8%
viability, T/C [4]: 37.8%
viability, T/C [5]: 4.83%
viability, T/C [6]: 4.43%
viability, T/C [7]: 107%
viability, T/C [8]: 91%
viability, T/C [9]: 55.7%
viability, T/C [10]: 25.5%
viability, T/C [11]: 6.39%
viability, T/C [12]: 4.33%
viability, T/C [13]: 88.5%
viability, T/C [14]: 65.9%
viability, T/C [15]: 59.7%
viability, T/C [16]: 23.2%
viability, T/C [17]: 3.82%
viability, T/C [18]: 2.07%
viability, T/C [19]: 0.35%
viability, T/C [20]: 0.25%
viability, T/C [21]: 0.29%
viability, T/C [22]: 0.14%
viability, T/C [23]: 0.14%
viability, T/C [24]: 0.22%

CC1(C)CCC(CN2CCN(c3ccc(C(=O)NS(=O)(=O)c4ccc(NCC5CCOCC5)c([N+](=O)[O-])c4)c(Oc4cnc5[nH]ccc5c4)c3)CC2)=C(c2ccc(Cl)cc2)C1 + CNCc1ccccc1-c1csc(C(C)Nc2nc(C)nc3cc(OC)c(OC)cc23)c1
pIC50 (second compound 0.1 µM): 5.72
pIC50 (second compound 0.316 µM): 5.76
pIC50 (second compound 1 µM): > 7.50
pIC50 (second compound 3.16 µM): > 7.50
pIC50 (second compound 10 µM): > 7.50
viability, T/C [1]: 107%
viability, T/C [2]: 95.7%
viability, T/C [3]: 106%
viability, T/C [4]: 83.6%
viability, T/C [5]: 24%
viability, T/C [6]: 4.79%
viability, T/C [7]: 82.6%
viability, T/C [8]: 69.5%
viability, T/C [9]: 83.6%
viability, T/C [10]: 81.1%
viability, T/C [11]: 19.3%
viability, T/C [12]: 1.1%
viability, T/C [13]: 41.8%
viability, T/C [14]: 47.4%
viability, T/C [15]: 54%
viability, T/C [16]: 39.2%
viability, T/C [17]: 4.62%
viability, T/C [18]: 0.48%
viability, T/C [19]: 0.12%
viability, T/C [20]: 0.09%
viability, T/C [21]: 0.2%
viability, T/C [22]: 0.08%
viability, T/C [23]: 0.05%
viability, T/C [24]: 0.38%
viability, T/C [25]: 0.18%
viability, T/C [26]: 0.28%
viability, T/C [27]: 0.14%
viability, T/C [28]: 0.17%
viability, T/C [29]: 0.44%
viability, T/C [30]: 1.23%

CC(C)n1nc(-c2ccc3oc(N)nc3c2)c2c(N)ncnc21 + C=CC(=O)N1CCN(c2nc(OCC3CCCN3C)nc3c2CCN(c2cccc4cccc(C)c24)C3)CC1CC#N
pIC50 (second compound 0.0316 µM): 8.14
pIC50 (second compound 0.1 µM): 8.21
pIC50 (second compound 0.316 µM): 8.14
pIC50 (second compound 1 µM): 8.24
pIC50 (second compound 3.16 µM): > 9.50
viability, T/C [33]: 91.9%
viability, T/C [34]: 89.1%
viability, T/C [35]: 71.1%
viability, T/C [36]: 41.9%
viability, T/C [31]: 26.6%
viability, T/C [32]: 21.8%
viability, T/C [37]: 111%
viability, T/C [38]: 91.8%
viability, T/C [39]: 65.2%
viability, T/C [40]: 40.7%
viability, T/C [1]: 22.6%
viability, T/C [2]: 19.9%
viability, T/C [41]: 89.6%
viability, T/C [42]: 95.9%
viability, T/C [43]: 67.1%
viability, T/C [44]: 44.6%
viability, T/C [7]: 22.7%
viability, T/C [8]: 18.3%
viability, T/C [45]: 106%
viability, T/C [46]: 78.2%
viability, T/C [47]: 62.9%
viability, T/C [48]: 41.6%
viability, T/C [13]: 24.8%
viability, T/C [14]: 21.6%
viability, T/C [49]: 18.4%
viability, T/C [50]: 0.63%
viability, T/C [51]: 13.2%
viability, T/C [52]: 0.24%
viability, T/C [19]: 0.27%
viability, T/C [20]: 1.47%

Cn1ncnc1[C@H]1c2n[nH]c(=O)c3cc(F)cc(c23)N[C@@H]1c1ccc(F)cc1 + C=CC(=O)N1CCN(c2nc(OCC3CCCN3C)nc3c2CCN(c2cccc4cccc(C)c24)C3)CC1CC#N
pIC50 (second compound 0.0316 µM): < 7.00
pIC50 (second compound 0.1 µM): < 7.00
pIC50 (second compound 0.316 µM): < 7.00
pIC50 (second compound 1 µM): < 7.00
pIC50 (second compound 3.16 µM): > 9.50
viability, T/C [33]: 118%
viability, T/C [34]: 89.7%
viability, T/C [35]: 90%
viability, T/C [36]: 75.5%
viability, T/C [31]: 77.2%
viability, T/C [32]: 80.7%
viability, T/C [37]: 102%
viability, T/C [38]: 90.9%
viability, T/C [39]: 69.8%
viability, T/C [40]: 77.9%
viability, T/C [1]: 78.2%
viability, T/C [2]: 67.3%
viability, T/C [41]: 89.9%
viability, T/C [42]: 66.3%
viability, T/C [43]: 89.9%
viability, T/C [44]: 86%
viability, T/C [7]: 69.8%
viability, T/C [8]: 66.3%
viability, T/C [45]: 76%
viability, T/C [46]: 76.5%
viability, T/C [47]: 68.5%
viability, T/C [48]: 80.8%
viability, T/C [13]: 68.8%
viability, T/C [14]: 69.9%
viability, T/C [49]: 1.48%
viability, T/C [50]: 4.65%
viability, T/C [51]: 3.13%
viability, T/C [52]: 15.2%
viability, T/C [19]: 0.64%
viability, T/C [20]: 8.16%
